We go through 36 molecules from ChEMBL document CHEMBL4483862, “Open-source discovery of chemical leads for next-generation chemoprotective antimalarials” (2018).

This experiment concerns Plasmodium berghei. Briefly: Luciferase/luciferin-expressing antifolate-resistant parasites were used to infect a culture of HepG2 cells that were pre-incubated with compounds. Infected hepatocytes emit light due to the luciferase reaction. Assay results are presented as the percent inhibition of light emission compared to control. […]. The class given is functional. Particulars: sporozoite; for IC90: read-out: LUCIFERASE INFECTION ASSAY - IC90.

The structures appear in SMILES notation.

Turning to `Cc1nc(C(=O)NNC(=O)c2ccc(Cl)cc2)cs1`, the IC90 was over 11.2 µM. Further, where the note is “PBLUC_HILL_SLOPE 2.52, PBLUC_R_SQUARED 0.734, read-out: LUCIFERASE INFECTION ASSAY - IC50”, the 50% inhibitory concentration (IC50) was over 11.2 µM.

For `O=C(Nc1ccc(F)cc1F)c1cc(Cl)cc(Cl)c1O`, the concentration for an effect of 90% (IC90) was over 10.4 µM. The IC50 (PBLUC_HILL_SLOPE 2.53, PBLUC_R_SQUARED 0.435, read-out: LUCIFERASE INFECTION ASSAY - IC50) came to 4.75 µM.

Consider `NC1=CC(=O)c2ccccc2C1=O`, for which the IC90 was over 19.1 µM. Moreover, where the note is “PBLUC_HILL_SLOPE 2.49, PBLUC_R_SQUARED 0.187, read-out: LUCIFERASE INFECTION ASSAY - IC50”, the half-inhibitory concentration (IC50) was 12 µM.

`CCC(C)(C)c1ccc(Oc2ccc(NC(=O)COC(=O)c3ccc(Cl)c(S(N)(=O)=O)c3)cc2)cc1`: the 90% effect concentration (IC90) was over 10 µM. Moreover, where the note is “PBLUC_HILL_SLOPE 2.55, PBLUC_R_SQUARED 0.138, read-out: LUCIFERASE INFECTION ASSAY - IC50”, the IC50 stood at 5.78 µM.

For `CCOc1cc2c(cc1/C=C/C(=O)c1ccc(C)o1)OC(C)C2` (configuration not stated), the 90% effect concentration (IC90) was over 10 µM. The IC50 (PBLUC_HILL_SLOPE 2.56, PBLUC_R_SQUARED 0.238, read-out: LUCIFERASE INFECTION ASSAY - IC50) worked out at 9.29 µM.

`COc1cc2[nH]c(CN3CCN(c4ncccn4)CC3)nc(=O)c2cc1OC`: the 90% effect concentration (IC90) is over 10 µM. In addition, the 50% inhibitory concentration (IC50) (PBLUC_HILL_SLOPE 2.49, PBLUC_R_SQUARED 0.0972, read-out: LUCIFERASE INFECTION ASSAY - IC50) came to 7.74 µM.

As for `Cc1nn2c3ccccc3n(C)c2c1C(=O)N/N=C/c1ccc([N+](=O)[O-])o1`, the concentration for an effect of 90% (IC90) is over 10 µM. In addition, the IC50 (PBLUC_HILL_SLOPE 2.48, PBLUC_R_SQUARED 0.513, read-out: LUCIFERASE INFECTION ASSAY - IC50) stood at 5.52 µM.

Consider `O=C(c1cnc(Nc2cccc(Cc3ccccc3)c2)[nH]1)c1ccccc1O`, for which the 90% effect concentration (IC90) was over 8.93 µM. Moreover, the concentration for half-maximal inhibition (IC50) (PBLUC_HILL_SLOPE 2.54, PBLUC_R_SQUARED 0.464, read-out: LUCIFERASE INFECTION ASSAY - IC50) amounted to 6.19 µM.

Regarding `Cc1ccc(NNC(=O)c2cnc3c(c2)c(C)nn3C)cc1Cl`, the concentration for an effect of 90% (IC90) was over 10 µM. Further, under “PBLUC_HILL_SLOPE 2.54, PBLUC_R_SQUARED 0.422, read-out: LUCIFERASE INFECTION ASSAY - IC50”, the IC50 is 7.03 µM.

On to `Nc1nc(-c2c[nH]c3ccccc23)c(-c2ccccc2)s1`, for which the IC90 was over 10 µM. For the same molecule, the IC50 (PBLUC_HILL_SLOPE 2.51, PBLUC_R_SQUARED 0.619, read-out: LUCIFERASE INFECTION ASSAY - IC50) is 7.04 µM.

Take `O=C(CN1CC=C(c2c[nH]c3ccccc23)CC1)Nc1cccc(F)c1`: the IC90 was over 10 µM. The half-inhibitory concentration (IC50) (PBLUC_HILL_SLOPE 2.56, PBLUC_R_SQUARED 0.252, read-out: LUCIFERASE INFECTION ASSAY - IC50) is 6.56 µM.

For the molecule `COc1ccc(C2CC(C)=NN2c2nc(-c3ccc(F)cc3)cs2)cc1OC` (configuration not stated), the concentration for an effect of 90% (IC90) was over 8.3 µM. Also, the 50% inhibitory concentration (IC50) (PBLUC_HILL_SLOPE 2.46, PBLUC_R_SQUARED 0.655, read-out: LUCIFERASE INFECTION ASSAY - IC50) was found to be 4.62 µM.

For the molecule `CC1N(C)c2cc(NC(=O)/C=C/c3ccc(F)cc3)ccc2C1(C)C` (configuration not stated), the IC90 is over 10 µM. Further, the 50% inhibitory concentration (IC50) (PBLUC_HILL_SLOPE 2.49, PBLUC_R_SQUARED 0.1, read-out: LUCIFERASE INFECTION ASSAY - IC50) stood at 5.32 µM.

For `Nc1nccnc1C(=O)Nc1ncc(Cc2cc(Cl)cc(Cl)c2)s1`, the 90% effect concentration (IC90) came out at 7.09 µM. Further, the concentration for half-maximal inhibition (IC50) (PBLUC_HILL_SLOPE 2.47, PBLUC_R_SQUARED 0.427, read-out: LUCIFERASE INFECTION ASSAY - IC50) is 2.91 µM.

`CC(C)NC(=O)NCc1ccc(C(=O)OCC(=O)C(C#N)=C2Nc3ccccc3N2)cc1`: the IC90 stood at 6.88 µM. The half-maximal inhibitory concentration (IC50) (PBLUC_HILL_SLOPE 2.52, PBLUC_R_SQUARED 0.605, read-out: LUCIFERASE INFECTION ASSAY - IC50) was 2.88 µM.

With `CCOC(=O)c1c(N)sc(Sc2ccccc2[N+](=O)[O-])c1-c1ccccc1`, the concentration for an effect of 90% (IC90) was over 10 µM. The IC50 (PBLUC_HILL_SLOPE 2.49, PBLUC_R_SQUARED 0.748, read-out: LUCIFERASE INFECTION ASSAY - IC50) is 4.39 µM.

`Cc1nc(COc2ccc(Cl)cc2)sc1C(=O)OC(C)C(=O)N1CCCC1` (configuration not stated): the IC90 was over 10 µM. The half-inhibitory concentration (IC50) (PBLUC_HILL_SLOPE 2.47, PBLUC_R_SQUARED 0.699, read-out: LUCIFERASE INFECTION ASSAY - IC50) is 4.52 µM.

For the molecule `CCC(C)(C)c1ccc(Oc2ccc(NC(=O)COC(=O)CNC(=O)c3ccc(C)c(C)c3)cc2)cc1`, the 90% effect concentration (IC90) was over 10 µM. In addition, the 50% inhibitory concentration (IC50) (PBLUC_HILL_SLOPE 2.53, PBLUC_R_SQUARED 0.335, read-out: LUCIFERASE INFECTION ASSAY - IC50) was determined as 6.55 µM.

With `CCN(Cc1ccc(Cl)s1)C(=O)c1ccc(NC(=O)c2ccco2)cc1`, the IC90 is over 10 µM. Further, for the setting “PBLUC_HILL_SLOPE 2.47, PBLUC_R_SQUARED 0.568, read-out: LUCIFERASE INFECTION ASSAY - IC50”, the IC50 is 5.55 µM.

Consider `CC(=O)N1CCc2cc(NC(=O)C3CCN(c4ccc(C#N)cn4)CC3)ccc21`, for which the IC90 is over 10 µM. For the same molecule, under “PBLUC_HILL_SLOPE 2.56, PBLUC_R_SQUARED 0.25, read-out: LUCIFERASE INFECTION ASSAY - IC50”, the IC50 is over 10 µM.

With `N#C/C(=C\c1cn(Cc2ccccc2)nc1-c1cccnc1)c1nc2ccccc2[nH]1`, the IC90 was determined as 8.82 µM. For the same molecule, the half-inhibitory concentration (IC50) (PBLUC_HILL_SLOPE 2.49, PBLUC_R_SQUARED 0.607, read-out: LUCIFERASE INFECTION ASSAY - IC50) was found to be 3.65 µM.

On to `O=c1cc(N2CCCN(c3ccc(C(F)(F)F)cn3)CC2)nc2ccccn12`, for which the IC90 is over 10 µM. The IC50 (PBLUC_HILL_SLOPE 2.47, PBLUC_R_SQUARED 0.397, read-out: LUCIFERASE INFECTION ASSAY - IC50) was 5.84 µM.

With `CCC1=C(C(=O)OC)C(c2c(F)cccc2F)NC(=S)N1c1ccc2c(c1)OCCO2` (configuration not stated), the IC90 is over 10 µM. In addition, the IC50 (PBLUC_HILL_SLOPE 2.5, PBLUC_R_SQUARED 0.683, read-out: LUCIFERASE INFECTION ASSAY - IC50) is 6.87 µM.

In the case of `CCn1cc(C(=O)OC)c(=O)c2cc(C(F)(F)F)ccc21`, the 90% effect concentration (IC90) is over 11 µM. Moreover, the IC50 (PBLUC_HILL_SLOPE 2.56, PBLUC_R_SQUARED 0.477, read-out: LUCIFERASE INFECTION ASSAY - IC50) worked out at 5.72 µM.

For `NC(=O)c1cccc(-c2cn3c(-c4ccc(F)c(Cl)c4)cnc3cn2)c1`, the IC90 was over 9 µM. Besides, the IC50 (PBLUC_HILL_SLOPE 2.55, PBLUC_R_SQUARED 0.396, read-out: LUCIFERASE INFECTION ASSAY - IC50) was determined as 5.28 µM.

Take `C=CCn1c(-c2ccc(Cl)cc2Cl)csc1=Nc1ccc(NC(C)=O)cc1`: the IC90 was 6.44 µM. The half-maximal inhibitory concentration (IC50) (PBLUC_HILL_SLOPE 2.47, PBLUC_R_SQUARED 0.472, read-out: LUCIFERASE INFECTION ASSAY - IC50) was determined as 2.64 µM.

On to `O=C(Nc1cc(Cl)sc1Cl)Oc1cccnc1`, for which the concentration for an effect of 90% (IC90) stood at 10.6 µM. Also, the 50% inhibitory concentration (IC50) (PBLUC_HILL_SLOPE 2.49, PBLUC_R_SQUARED 0.591, read-out: LUCIFERASE INFECTION ASSAY - IC50) was determined as 4.41 µM.

Take `NS(=O)(=O)c1cc(C(=O)OCC(=O)Nc2ccc(OC(F)F)cc2)ccc1Cl`: the 90% effect concentration (IC90) was over 10 µM. The 50% inhibitory concentration (IC50) (PBLUC_HILL_SLOPE 2.5, PBLUC_R_SQUARED 0.514, read-out: LUCIFERASE INFECTION ASSAY - IC50) stood at 6.64 µM.

Take `Cc1ccc2cc(C)c(N/N=C/c3c(C)nn(-c4ccccc4)c3Cl)nc2c1`: the IC90 stood at 9.17 µM. The concentration for half-maximal inhibition (IC50) (PBLUC_HILL_SLOPE 2.56, PBLUC_R_SQUARED 0.451, read-out: LUCIFERASE INFECTION ASSAY - IC50) was determined as 3.89 µM.

Turning to `CC(C)c1ccc(NC(=O)N2[C@@H]3CC[C@@H](C3)[C@H]2c2nc3c(OCC4CC4)cccc3[nH]2)cc1`, the IC90 was over 10 µM. Also, where the note is “PBLUC_HILL_SLOPE 2.47, PBLUC_R_SQUARED 0.452, read-out: LUCIFERASE INFECTION ASSAY - IC50”, the concentration for half-maximal inhibition (IC50) was 6.2 µM.

With `COc1ccc(OC)c(/C=c2\s/c(=C(/C#N)c3nnc4n3CCCCC4)n(-c3ccccc3)c2=O)c1`, the IC90 was over 10 µM. Further, the 50% inhibitory concentration (IC50) (PBLUC_HILL_SLOPE 2.48, PBLUC_R_SQUARED 0.654, read-out: LUCIFERASE INFECTION ASSAY - IC50) came to 4.74 µM.

Turning to `Cc1cc(CN(Cc2ccc(C(=O)NC3CC3)cc2)Cc2ccco2)no1`, the concentration for an effect of 90% (IC90) is over 10 µM. Further, the half-inhibitory concentration (IC50) (PBLUC_HILL_SLOPE 2.47, PBLUC_R_SQUARED 0.284, read-out: LUCIFERASE INFECTION ASSAY - IC50) turned out to be 5.89 µM.

Take `CCCCOCCCNC(=O)c1cc2ccccc2cc1OC`: the concentration for an effect of 90% (IC90) is over 10 µM. Besides, the IC50 (PBLUC_HILL_SLOPE 2.53, PBLUC_R_SQUARED 0.451, read-out: LUCIFERASE INFECTION ASSAY - IC50) worked out at 6.56 µM.

For the molecule `COc1ccc(S(=O)(=O)Nc2cc(Sc3ccc(C)cc3)c(O)c3ccccc23)cc1`, the 90% effect concentration (IC90) is over 10 µM. Under “PBLUC_HILL_SLOPE 2.53, PBLUC_R_SQUARED 0.459, read-out: LUCIFERASE INFECTION ASSAY - IC50”, the IC50 was found to be 6.71 µM.

For the molecule `CCOc1ccc(N(C)S(=O)(=O)c2ccc(C)c(C(=O)Nc3nc4ccccc4[nH]3)c2)cc1`, the 90% effect concentration (IC90) was 3.87 µM. For the same molecule, for the setting “PBLUC_HILL_SLOPE 2.47, PBLUC_R_SQUARED 0.24, read-out: LUCIFERASE INFECTION ASSAY - IC50”, the 50% inhibitory concentration (IC50) was determined as 1.59 µM.

Regarding `C/C(=N\N=C(N)N)c1ccc(Cl)c(Cl)c1`, the IC90 was over 10 µM. The IC50 (PBLUC_HILL_SLOPE 2.49, PBLUC_R_SQUARED 0.254, read-out: LUCIFERASE INFECTION ASSAY - IC50) was found to be 4.31 µM.

A word on the IC50: it is the concentration that inhibits the measured activity by half. As a reminder, the IC90 is the concentration at which the effect reaches the 90% level.
